From patent US8741911B2, “Raf inhibitor compounds” (Eli Lilly and Company, priority 2012, dated 2014)
Where two headings read alike, the source gives them in different places.

Key:
MIA-PaCa-2 = test: CellTiter-Glo proliferation and viability assay; format: cell-based; conditions: Homo sapiens, read-out: Abs IC50
U-266 = test: CellTiter-Glo proliferation and viability assay; format: cell-based; conditions: Homo sapiens, read-out: Abs IC50
RKO = test: CellTiter-Glo proliferation and viability assay; format: cell-based; conditions: Homo sapiens
[1] = system: HCT-116 K-Ras mutant B-Raf wild type xenograft; test: HCT-116 xenograft tumor model, efficacy; format: in vivo, rat; conditions: nude rats, oral twice a day 30 mg/kg for 21 days
Description: Briefly, 10×10^6 cells (A375) or 5×10^6 cells (HCT-116) in a 1:1 medium and matrigel mix (0.2 mL total volume) are implanted by subcutaneous injection in the hind leg of nude female rats (NIH model No. NIHRNU-M from Taconic). A total of 8 rats in each group are used for the efficacy study, and a total of 3-4 rats in each group are used for a pharmacodynamic study. The Eli Lilly and Company Animal Care and Use Committee approved all the experimental protocols. […] Tumor growth and body weight are monitored over time to evaluate activity and signs of toxicity. Bidimensional measurements of tumors are performed twice a week and tumor volumes are calculated based on mid-axis length and mid-axis width. Tumor volume data are transformed to a log scale to equalize variance across time and treatment groups. The log volume data are analyzed with a two-way repeated measures analysis of variance by time and treatment using the MIXED® procedures in SAS® software (version 8.2). The correlation model for the repeated measures is spatial power. Treated groups are compared to the control group at each time point. The MIXED® procedure is also used separately for each treatment group to calculate adjusted means and standard errors at each time point. […]

NCI-H661 = test: CellTiter-Glo proliferation and viability assay; format: cell-based; conditions: Homo sapiens
HEL = test: CellTiter-Glo proliferation and viability assay; format: cell-based; conditions: Homo sapiens, read-out: Abs IC50
AsPC-1 = test: CellTiter-Glo proliferation and viability assay; format: cell-based; conditions: Homo sapiens
LNCaP-Clone-FGC = test: CellTiter-Glo proliferation and viability assay; format: cell-based; conditions: Homo sapiens
SNU-449 = test: CellTiter-Glo proliferation and viability assay; format: cell-based; conditions: Homo sapiens
Ba/F3 c-Kit V654A = test: Ba/F3 c-Kit anti-proliferation assay; format: cell-based; conditions: Mus musculus, BaF3, Ba/F3 c-Kit V654A, read-out: Anti-proliferation activities (IC50)
Description: (§1) To further evaluate the test compound, it is tested against c-Kit mutations commonly occurring in melanoma and/or GIST. Ba/F3 cell line (from ATCC) are transfected with wild type (WT) c-Kit, c-Kit L576P (Willmore-Payne et al, Human Pathology, 2005, 36(5), 486; Willmore-Payne et al, Human Pathology, 2006, 37, 520), c-Kit K642E (Willmore et al, Am J Clin Pathol, 2004, 122(2), 206; Monsel et al, Oncogene, 2010, 29, 227), c-Kit T670I (Tamborini et al, Oncogene, 2006, 25, 6140), or c-Kit V654A (Tamborini et al, Oncogene, 2006, 25, 6140), respectively are established by retroviral transfection methods well known and used by those skilled in the art. The mutations are generated by polymerase chain reaction (PCR) mutagenesis and confirmed by automated sequencing of the PCR-amplified c-Kit expression construct. Ba/F3 stable cell lines are generated by transfecting with plasmid DNA. Expression of the appropriate c-Kit mutants is confirmed by Western blot analysis.
(§2) Wild type Ba/F3 cells are generally dependent on IL-3 for growth. After c-Kit transfection, these cells are grown in Ba/F3 ATCC recommended growth medium in the presence of stem cell factor (SCF), the ligand of c-Kit. The anti-proliferation activities of test compounds against these cells are tested in the presence of IL-3 or SCF.

Ba/F3 c-Kit K642E = test: Ba/F3 c-Kit anti-proliferation assay; format: cell-based; conditions: Mus musculus, BaF3, Ba/F3 c-Kit K642E, read-out: Anti-proliferation activities (IC50)
Description: as §1, §2

Ba/F3 c-Kit T670I = test: Ba/F3 c-Kit anti-proliferation assay; format: cell-based; conditions: Mus musculus, BaF3, Ba/F3 c-Kit T670I, read-out: Anti-proliferation activities (IC50)
Description: as §1, §2

Ba/F3 c-Kit WT = test: Ba/F3 c-Kit anti-proliferation assay; format: cell-based; conditions: Mus musculus, BaF3, Ba/F3 c-Kit WT, read-out: Anti-proliferation activities (IC50)
Description: as §1, §2

Ba/F3 c-Kit L576P = test: Ba/F3 c-Kit anti-proliferation assay; format: cell-based; conditions: Mus musculus, BaF3, Ba/F3 c-Kit L576P, read-out: Anti-proliferation activities (IC50)
Description: as §1, §2

BxPC-3 = test: CellTiter-Glo proliferation and viability assay; format: cell-based; conditions: Homo sapiens
MOLT-4 = test: CellTiter-Glo proliferation and viability assay; format: cell-based; conditions: Homo sapiens
THP-1 = test: CellTiter-Glo proliferation and viability assay; format: cell-based; conditions: Homo sapiens

## CNc1ncc2cc(-c3cc(NC(=O)NCCC(C)(C)C)c(F)cc3C)c(C)nc2n1 [Example 1, 1-(3,3-Dimethylbutyl)-3-(2-fluoro-4-methyl-5-(7-methyl-2-(methylamino)pyrido[2,3-d]pyrimidin-6-yl)phenyl)urea]
MIA-PaCa-2
  IC50: 1.09 nM
U-266
  IC50: 1.1 nM
RKO; read-out: Abs IC50
  IC50: 4.92 nM
RKO; read-out: Rel IC50
  IC50: 0.26 nM
[1]
  tumor growth: statistically significant tumor growth inhibition
NCI-H661; read-out: Abs IC50
  IC50: > 20 nM
NCI-H661; read-out: Rel IC50
  IC50: 12.6 nM
HEL
  IC50: > 20 nM
AsPC-1; ASPC1, read-out: Abs IC50
  IC50: 1.22 nM
AsPC-1; ASPC1, read-out: Rel IC50
  IC50: 0.38 nM
LNCaP-Clone-FGC; read-out: Abs IC50
  IC50: > 20 nM
LNCaP-Clone-FGC; read-out: Rel IC50
  IC50: 2.74 nM
SNU-449; read-out: Abs IC50
  IC50: 1.87 nM
SNU-449; read-out: Rel IC50
  IC50: 2.01 nM
Ba/F3 c-Kit V654A; IL-3
  IC50: 2940 nM
Ba/F3 c-Kit V654A; SCF
  IC50: 86 nM
Ba/F3 c-Kit K642E; IL-3
  IC50: 1200 nM
Ba/F3 c-Kit K642E; SCF
  IC50: 47 nM
Ba/F3 c-Kit T670I; IL-3
  IC50: 5920 nM
Ba/F3 c-Kit T670I; SCF
  IC50: 290 nM
Ba/F3 c-Kit WT; IL-3
  IC50: 2860 nM
Ba/F3 c-Kit WT; SCF
  IC50: 62 nM
Ba/F3 c-Kit L576P; IL-3
  IC50: 2080 nM
Ba/F3 c-Kit L576P; SCF
  IC50: 179 nM
BxPC-3; read-out: Abs IC50
  IC50: 0.39 nM
BxPC-3; read-out: Rel IC50
  IC50: 0.23 nM
MOLT-4; read-out: Abs IC50
  IC50: > 20 nM
MOLT-4; read-out: Rel IC50
  IC50: 1.21 nM
THP-1; read-out: Abs IC50
  IC50: 0.08 nM
THP-1; read-out: Rel IC50
  IC50: 0.03 nM
